Literature values as cited in patent US9505976B2, “Excitation-dependent fluorescent organic nanoparticles” (National Kaohsiung Normal University, priority 2013, dated 2016).

Details: in ethanol

CCN(CC)c1ccc2c(C)cc(=O)oc2c1 [coumarin 1, 7-diethylamino-4-methylcoumarin]
quantum yield of reference: 73%
